Tests used:
[1] = refractive index (Na D-line) (dimensionless); xn = mol fraction of the nth substance listed; settings: 100 kPa, Liquid, Standard Abbe refractometry
[2] = xn = mol fraction of the nth substance listed; settings: 100 kPa, Liquid; for speed of sound: Frequency=3 MHz, Sing-around technique in a fixed-path interferometer; for mass density: Vibrating tube method

C=CN1CCCC1=O [N-vinylpyrrolidone] + CCCCn1cc[n+](C)c1.F[B-](F)(F)F
Settings | mass density, [2] [kg/m3] | refractive index, [1] | speed of sound, [2] [m/s]
298.15 K, x2 = 0 | 1039.36 | 1.51119 | 1521.5
298.15 K, x2 = 0.1046 | 1069.96 | 1.4987 | 1537.3
298.15 K, x2 = 0.2035 | 1093.11 | 1.48698 | 1546
298.15 K, x2 = 0.3042 | 1113.53 | 1.47636 | 1552.7
298.15 K, x2 = 0.406 | 1131.03 | 1.46672 | 1557.8
298.15 K, x2 = 0.4945 | 1144.21 | 1.45868 | 1560.6
298.15 K, x2 = 0.607 | 1159.22 | 1.44913 | 1563.2
298.15 K, x2 = 0.697 | 1170.1 | 1.44241 | 1564.4
298.15 K, x2 = 0.7828 | 1179.78 | – | 1565.8
298.15 K, x2 = 0.9104 | 1191.59 | 1.42725 | 1566.1
303.15 K, x2 = 0 | 1034.95 | 1.50886 | 1502.5
303.15 K, x2 = 0.1046 | 1065.76 | 1.49659 | 1519.9
303.15 K, x2 = 0.2035 | 1089.01 | 1.48494 | 1529.6
303.15 K, x2 = 0.3042 | 1109.53 | 1.4745 | 1537.2
303.15 K, x2 = 0.406 | 1127.12 | 1.4648 | 1543
303.15 K, x2 = 0.4945 | 1140.37 | 1.45699 | 1546.2
303.15 K, x2 = 0.607 | 1155.45 | 1.44651 | 1549.5
303.15 K, x2 = 0.697 | 1166.39 | 1.44097 | 1551.4
303.15 K, x2 = 0.7828 | 1176.14 | 1.43197 | 1553
303.15 K, x2 = 0.9104 | 1187.99 | 1.42592 | 1553.9
308.15 K, x2 = 0 | 1030.55 | 1.5065 | 1483.7
308.15 K, x2 = 0.1046 | 1061.54 | 1.49444 | 1502.4
308.15 K, x2 = 0.2035 | 1084.92 | 1.48295 | 1513
308.15 K, x2 = 0.3042 | 1105.54 | 1.47251 | 1521.5
308.15 K, x2 = 0.406 | 1123.22 | 1.46308 | 1528
308.15 K, x2 = 0.4945 | 1136.54 | 1.45534 | 1532.1
308.15 K, x2 = 0.607 | 1151.7 | 1.44502 | 1535.8
308.15 K, x2 = 0.697 | 1162.69 | 1.43944 | 1538.3
308.15 K, x2 = 0.7828 | 1172.5 | 1.43065 | 1540.6
308.15 K, x2 = 0.9104 | 1184.4 | 1.42459 | 1542.1
313.15 K, x2 = 0 | 1026.14 | 1.50415 | 1465
313.15 K, x2 = 0.1046 | 1057.33 | 1.49224 | 1485
313.15 K, x2 = 0.2035 | 1080.83 | 1.48108 | 1496.5
313.15 K, x2 = 0.3042 | 1101.56 | 1.47065 | 1505.9
313.15 K, x2 = 0.406 | 1119.32 | 1.46137 | 1513.2
313.15 K, x2 = 0.4945 | 1132.74 | 1.45369 | 1517.9
313.15 K, x2 = 0.607 | 1147.96 | 1.44349 | 1522.3
313.15 K, x2 = 0.697 | 1159.01 | 1.43784 | 1525.3
313.15 K, x2 = 0.7828 | 1168.89 | 1.42937 | 1528.1
313.15 K, x2 = 0.9104 | 1180.83 | 1.42327 | 1530.1
318.15 K, x2 = 0 | 1021.73 | 1.50181 | 1446.5
318.15 K, x2 = 0.1046 | 1053.13 | 1.49001 | 1467.7
318.15 K, x2 = 0.2035 | 1076.75 | 1.47899 | 1480.3
318.15 K, x2 = 0.3042 | 1097.59 | 1.46886 | 1490.4
318.15 K, x2 = 0.406 | 1115.44 | 1.45957 | 1498.5
318.15 K, x2 = 0.4945 | 1128.96 | 1.45198 | 1503.9
318.15 K, x2 = 0.607 | 1144.25 | 1.44199 | 1509
318.15 K, x2 = 0.697 | 1155.36 | 1.43632 | 1512.5
318.15 K, x2 = 0.7828 | 1165.3 | 1.42834 | 1515.7
318.15 K, x2 = 0.9104 | 1177.29 | 1.42194 | 1518.3
323.15 K, x2 = 0 | 1017.33 | 1.49948 | 1428.1
323.15 K, x2 = 0.1046 | 1048.93 | 1.4878 | 1450.6
323.15 K, x2 = 0.2035 | 1072.68 | 1.47691 | 1464.1
323.15 K, x2 = 0.3042 | 1093.63 | 1.46692 | 1475.1
323.15 K, x2 = 0.406 | 1111.58 | 1.45773 | 1483.9
323.15 K, x2 = 0.4945 | 1125.2 | 1.45015 | 1489.9
323.15 K, x2 = 0.607 | 1140.57 | 1.44042 | 1495.7
323.15 K, x2 = 0.697 | 1151.73 | 1.43462 | 1499.8
323.15 K, x2 = 0.7828 | 1161.76 | 1.42708 | 1503.5
323.15 K, x2 = 0.9104 | 1173.77 | 1.42061 | 1506.7

Source: the NIST ThermoML archive (doi:10.1021/je500936y)
